The conditions of data set [1]: 16000 nM, pH 7.4.
Experiment in data set [2]: not given
This is another data set of the same source.

In another data set the target is Nterm1 (UniProt position 344, SIQSRGLFGAI). Nature of the data set: NMR. To be noted: micelle-bound peptide with lysine tail; cited from earlier work.
The next data set deals with Asp19 (UniProt position 362, WTGMIDGWYGY). In words: NMR. To be noted: micelle-bound peptide with lysine tail; cited from earlier work.
The target of a further data set is Glu11 (UniProt position 354, IAGFIEGGWTG). Nature of the data set: NMR. The note with it: micelle-bound peptide with lysine tail; cited from earlier work.

Like-named read-outs stand apart in the source and are kept apart here. Where no end group is shown, it is not given here.

As to “GLFGAIAGFIEGGWTGMIDGWYGS [influenza fusion peptide]”, the amide I band peak position is 1660 cm⁻¹. Also, the “percentage of lipid mixing” value in data set [1] is 23.9 ± 1.8%. Moreover, in data set [2] (pH 5), the “partition coefficient (Kp) between the aqueous and lipid phases” value is listed as “(1.0 ± 0.1) × 10^4”. The “partition coefficient (Kp) between the aqueous and lipid phases” value in data set [2] (pH 7.4) is given as “(2.9 ± 0.4) × 10^4”.

As usually defined, the pKa is the pH at which an ionisable group is half protonated. Regarding “Influenza hemagglutinin HA2 fusion peptide (HAfp23) with C-terminal hydrophilic lysine tail (Influenza A virus (subtype H1; strain not stated))”, the pKa with Nterm1 was 8.8; with Asp19, 4.35; in the data set with Glu11 it was 5.31.

The values are drawn from PMC7674464, “Effect of pH on the influenza fusion peptide properties unveiled by constant-pH molecular dynamics simulations combined with experiment” (Scientific Reports, 2020).
